Data: patent US20250134853A1, “COMPOUNDS AND METHODS FOR USING GALLOYLATED POLYPHENOLS TO TREAT DISEASES MEDIATED BY THIOL ISOMERASES” (Beth Israel Deaconess Medical Center, Inc., priority 2023, published 2025)
“Also recorded” adds a separate entry of the source. Where two headings read alike, the source gives them in different places.

Assays:
PDI [1] = target: T1, PDI (Homo sapiens, UniProt P07237); assay: Di-eosin-GSSG disulfide reductase assay, PDI; type: biochemical
T1 construct: FLAG; made in house; host or cells: Escherichia coli Origami B (DE3)
T1 sequence (P07237 18-508): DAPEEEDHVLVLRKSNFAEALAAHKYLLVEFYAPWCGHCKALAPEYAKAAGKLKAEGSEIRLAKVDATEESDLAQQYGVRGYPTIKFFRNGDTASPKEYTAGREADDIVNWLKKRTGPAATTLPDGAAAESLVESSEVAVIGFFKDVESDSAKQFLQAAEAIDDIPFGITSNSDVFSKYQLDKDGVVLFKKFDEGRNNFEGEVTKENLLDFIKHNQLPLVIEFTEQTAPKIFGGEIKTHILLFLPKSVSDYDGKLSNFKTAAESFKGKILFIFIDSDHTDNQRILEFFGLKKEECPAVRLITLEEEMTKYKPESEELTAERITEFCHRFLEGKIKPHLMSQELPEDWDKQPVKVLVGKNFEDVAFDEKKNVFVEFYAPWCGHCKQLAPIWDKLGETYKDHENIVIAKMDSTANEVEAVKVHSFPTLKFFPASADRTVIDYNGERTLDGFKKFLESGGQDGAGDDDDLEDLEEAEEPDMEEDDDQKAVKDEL
Experimental: (§1) Di-eosin-GSSG disulfide reductase assay. The probe di-eosin glutathione disulfide, di-eosin-GSSG, was prepared by incubating 100 μM of GSSG with 1 mM of eosin isothiocyanate in 100 mM potassium phosphate containing 2 mM EDTA (pH 7.4), at 25° C. overnight in the dark. The mixture was passed down a PD-10 column and different fractions were collected. A fold change of fluorescence (Ex: 520 nm, Em: 550 nm) was calculated using samples subjected to either vehicle or 20 mM of DTT. Any fraction with a fold change >5 was kept. Using a stock of 10 mM eosin isothiocyanate, a standard curve was generated and concentration of samples were determined accordingly. Di-eosin-GSSG cleavage of purified thiol isomerases and PDI domains was monitored in a 96-well fluorescence plate format. PDI, CGXC-PDI variants, ERp5, ERp57, ERp46 and PDI domains were assayed at 50 nM in the presence or absence of the indicated small molecules. The assay included a thiol isomerase assay buffer (39 mM KH2PO4, 61 mM K2HPO4, 2 mM EDTA, 5 M DTT, pH 7.4) and 150 nM of the di-eosin-GSSG probe. The increase in fluorescence was determined for 60 min by excitation at 520 nm and emission at 550 nm in a Synergy Biotek 4. The reduction of 150 nM di-eosin-GSSG by 5 μM DTT in the presence or absence of mentioned small molecule or proteins served as a negative control.

ERp5 = target: T2, ERp5 (Homo sapiens, UniProt Q15084); assay: Di-eosin-GSSG disulfide reductase assay, ERp5; type: biochemical; settings: 20 μM
T2 construct: recombinant His-tagged full-length ERp5, ERp72; His-tag; made in house; host or cells: Escherichia coli Origami B (DE3)
T2 sequence (Q15084 20-440): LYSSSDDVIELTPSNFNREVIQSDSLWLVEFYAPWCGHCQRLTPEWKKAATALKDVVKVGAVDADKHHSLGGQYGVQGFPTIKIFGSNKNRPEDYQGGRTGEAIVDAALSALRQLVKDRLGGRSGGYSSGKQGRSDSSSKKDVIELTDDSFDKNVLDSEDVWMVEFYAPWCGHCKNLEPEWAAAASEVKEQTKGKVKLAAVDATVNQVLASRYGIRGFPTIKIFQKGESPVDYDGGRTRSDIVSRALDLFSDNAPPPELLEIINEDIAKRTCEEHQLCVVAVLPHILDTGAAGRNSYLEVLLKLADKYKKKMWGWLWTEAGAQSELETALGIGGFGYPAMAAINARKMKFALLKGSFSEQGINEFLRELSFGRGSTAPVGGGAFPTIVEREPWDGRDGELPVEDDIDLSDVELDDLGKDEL
Source text: Recombinant protein purification. Recombinant ‘double-tagged’ (streptavidin-binding protein-tagged and FLAG-tagged) full-length PDI, ERp57, recombinant His-tagged full-length ERp5, ERp72, PDI domain fragments, and PDI mutant were cloned into a pET-15b vector at the NdeI and BamHI sites and transformed into Escherichia coli Origami B (DE3) cells (EMD Chemicals). The recombinant proteins were expressed and isolated by affinity chromatography with complete His-Tag purification resin (Roche Applied Science) or Pierce High-Capacity Streptavidin Agarose beads and purified on a Superdex 200 (GE Healthcare).
Di-eosin-GSSG disulfide reductase assay. […] Any fraction with a fold change >5 was kept.

[2] = system: recombinant PDI, ERp57, and ERp5; assay: Di-eosin-GSSG assay, thiol isomerases at 20 μM compound; type: biochemical; settings: 15 minute incubation
[3] = system: PDI domain fragments (a, a′, ab, abb′, b′xa′); assay: Di-eosin-GSSG assay on isolated PDI domain fragments; type: biochemical; settings: for inhibition of isolated a′ domain cleavage of di-eosin-GSSG: 20 μM
Experimental: as §1

SARS-CoV-2 = settings: cited from earlier work
PDI [4] = target: T1, PDI; assay: Insulin reductase assay; type: biochemical; settings: 20 μM
Experimental: Insulin reductase assay. Insulin was prepared by mixing 12.5 mg/mL insulin in 50 mM Tris-HCl, pH 8. 1 M HCl was carefully added to drop the pH to 2.0 for solution clarification. Once the solution clarifies, 1 M NaOH was added to rapidly adjust the pH back to 8.0. The solution was then adjusted to 1.5 mM (10 mg/mL) with 50 mM Tris-HCl, aliquoted and stored in −20° C. until use. 2× concentrations of thiol isomerases were prepared (final concentrations as indicated in each assay) and mixed with 1.2 mM DTT (final 0.3 mM) and 0.4 mM insulin (final 0.1 mM) using a thiol isomerase activity assay buffer. Insulin precipitation from enzyme-mediated reduction was assayed in 96-well clear bottom plates at 650 nm absorption.

SARS-CoV-2 M^pro [5] = target: T3, SARS-CoV-2 M^pro (Severe acute respiratory syndrome coronavirus 2, UniProt P0DTD1)
PDI [6] = target: T1, PDI; assay: SDS-PAGE molecular weight shift (alkylation of PDI free thiols); type: biochemical
Source text: FIG. 5 is an image of gel showing detection of PDI free thiol by the labeling of acetamido maleimidylstilbene disulfonic acid (AMS), which shifts the protein to a higher apparent molecular weight.
4-acetomido-4′-maleimidylstilbene-2,2′ disulfonic acid (AMS), which shifts the mass of the protein by 500 Da for every cysteine alkylated, was used as a positive control. […] N-ethylmaleimide (NEM) was used for a control experiment because covalent alkylation of the free thiols will expectedly prevent PDI activity (FIG. 6A).

[7] = system: thrombus formation in carotid artery after FeCl3; assay: Ferric chloride thrombosis model; type: in vivo, C57Bl/6J mice; settings: punicalagin by oral gavage
Experimental: Wildtype C57Bl/6J mice were exposed to 100 μg/g punicalagin via oral gavage (n=5) or vehicle (n=7). The carotid artery was surgically isolated, exposed to 10% w/v FeCl3 for 3 min, and visualized by fluorescence microscopy. Time to occlusion was monitored.
Ferric chloride thrombosis model. Thrombus formation induced by ferric chloride was assayed as previously described in Li W, et al. Circ. Res. 115:997-1006, 2014. The mice were treated by oral gavage with 100 μg/g punicalagin or vehicle control for 90 min prior to injury. Before the 90 min time point, the mice were anesthetized with a cocktail of 125 mg/kg ketamine and 12 mg/kg xylazine. The left jugular vein was cannulated for infusion of a DyLight 649 conjugated antibody against GPIbβ (Emfret Analytics; 0.1 μg/g) and 50 mg/kg pentobarbital for maintenance anesthetics. […] Thrombi formation was observed using a 10×0.3 NA water immersion objective mounted to an AX-70 fluorescence microscope (Olympus Japan) equipped with a CCD camera (ORCA Flash 4.0, Hamamatsu Photonics, Japan). Data were analyzed by Slidebook 6.0 (Intelligent Imaging Innovations).
Punicalagin inhibits thrombus formation. […] The ability of orally delivered punicalagin to inhibit thrombus formation following vascular injury was assessed. […] Vessel patency was visualized by fluorescence microscopy using anti-GPIbβ antibody to monitor for vascular occlusion. […]

[8] = system: bleeding following tail clip; assay: Tail clip assay of hemostasis; settings: punicalagin ingestion
SARS-CoV-2 M^pro [9] = target: T3, SARS-CoV-2 M^pro; settings: cited from earlier work
platelets = settings: cited from earlier work
[10] = Table 1, IC50 curves on PDI activity (FIGS. 13B-E, 17A-E), read-out: Relative PDI inhibition

Compound	IC50 (PDI [1]; [10]) [µM]	inhibition of thiol isomerases (PDI, ERp57, ERp5) in words [2]	inhibition of PDI (in words) (PDI [1])	inhibition of isolated a′ domain cleavage of di-eosin-GSSG [3]	Inhibition of viral replication (cell system in which shown) (SARS-CoV-2)	also measured
O=C(O[C@@H]1Cc2c(O)cc(O)cc2O[C@H]1c1ccc(O)c(O)c1)c1cc(O)c(O)c(O)c1 [Catechin 3-gallate]	> 20	some inhibition, particularly of ERp5				activity against ERp5 (in words) (ERp5): had activity against ERp5
O=c1c(O)cc([C@H]2Oc3cc(O)cc(O)c3C[C@H]2O)cc2c([C@H]3Oc4cc(O)cc(O)c4C[C@H]3O)cc(O)c(O)c12 [Theaflavin]	> 500	poor inhibition	failed to inhibit PDI; also recorded: inactive compounds against PDI			
theaflavin 3-3′-digallate [Theaflavin 3,3′-gallate]		strong inhibition of all three thiol isomerases		inhibited the ability of isolated a′ domain to cleave di-eosin-GSSG	VeroE6/TMPRSS2	inhibition of isolated PDI fragments ([3]; a, ab, b′xa′, abb′ fragments, PGHG at 10 μM): inhibited isolated a and a′ fragments as well as ab, b′xa′ and abb′x fragments
O=C(O[C@@H]1Cc2c(O)cc(O)cc2O[C@@H]1c1cc(=O)c(O)c2c(O)c(O)cc([C@H]3Oc4cc(O)cc(O)c4C[C@H]3O)c2c1)c1cc(O)c(O)c(O)c1 [Theaflavin 3-gallate]	3.4	strong inhibition of all three thiol isomerases		inhibited the ability of isolated a′ domain to cleave di-eosin-GSSG	Vero Cells	inhibition of the ability of PDI to reduce insulin (PDI [4]): inhibited the ability of PDI to reduce insulin; IC50 (SARS-CoV-2 M^pro [5]; literature values (Table 2); read-out: SARS-CoV-2 M^pro inhibition; cited from earlier work): 18.5 µM; reduction of viral counts (SARS-CoV-2; Vero cell assay): 75%
CC(=O)Nc1ccc(C=Cc2ccc(N3C(=O)C=CC3=O)cc2S(=O)(=O)O)c(S(=O)(=O)O)c1 [AMS, 4-acetomido-4′-maleimidylstilbene-2,2′ disulfonic acid, reference compound]						shift in molecular weight of PDI in SDS polyacrylamide gel (PDI [6]): induced a slight increase in molecular mass
O=C(O[C@@H]1Cc2c(O)cc(O)cc2O[C@@H]1c1cc(O)c(O)c(O)c1)c1cc(O)c(O)c(O)c1 [EGCG, epigallocatechin gallate]	243	relatively little activity	did not inhibit PDI; also recorded: inactive compounds against PDI			
O=c1cc(-c2ccc(O)cc2)oc2cc(O)cc(O)c12 [apigenin, reference compound]						inhibition of SARS-CoV-2 / infection (in words) (SARS-CoV-2): inhibitors of SARS-CoV-2
O=C1O[C@H]2[C@@H]3OC(=O)c4cc(O)c(O)c(O)c4-c4c(O)c(O)c5oc(=O)c6c(c(O)c(O)c7oc(=O)c4c5c76)-c4c(cc(O)c(O)c4O)C(=O)OC[C@H]3OC(O)[C@@H]2OC(=O)c2cc(O)c(O)c(O)c2-c2c1cc(O)c(O)c2O (mixture of isomers) [Punicalagin]	19	strong inhibition of thiol isomerases		inhibited the ability of isolated a′ domain to cleave di-eosin-GSSG	293T-hACE2 and NIC-H460	inhibition of the ability of PDI to reduce insulin (PDI [4]): inhibited the ability of PDI to reduce insulin; inhibition of thiol isomerases (PDI, ERp57, ERp5) in words ([2]; listed as punicalagin): strong thiol isomerase inhibition; vessels that never occluded ([7]; 10% FeCl3 for 3 min): ~50%; time for occlusion of vessels that clotted ([7]; compared to controls): consistently prolonged; IC50 (SARS-CoV-2 M^pro [5]; read-out: SARS-CoV-2 M^pro inhibition; literature values (Table 2); cited from earlier work): 5.7 µM; inhibition of SARS-CoV-2 / infection (in words) (SARS-CoV-2): inhibits both SARS-CoV-2 M^pro and omicron variants of SARS-CoV-2 infection; cessation of bleeding, Kaplan Meier curves [8]: prolonged bleeding; total bleeding time ([8]; 1 mm diameter tail transection): 110 s
Oc1cc(O)c2c(c1)O[C@H](c1cc(O)c(O)c(O)c1)[C@H](O)C2 [EGC, epigallocatechin]	> 500	relatively little activity	did not inhibit PDI; also recorded: inactive compounds against PDI			
Catechin						activity against ERp5 (in words) (ERp5): had activity against ERp5
O=C(OC[C@H]1O[C@@H](OC(=O)c2cc(O)c(O)c(OC(=O)c3cc(O)c(O)c(O)c3)c2)[C@H](OC(=O)c2cc(O)c(O)c(OC(=O)c3cc(O)c(O)c(O)c3)c2)[C@@H](OC(=O)c2cc(O)c(O)c(OC(=O)c3cc(O)c(O)c(O)c3)c2)[C@@H]1OC(=O)c1cc(O)c(O)c(OC(=O)c2cc(O)c(O)c(O)c2)c1)c1cc(O)c(O)c(OC(=O)c2cc(O)c(O)c(O)c2)c1 [Tannic acid]	8.5	potently inhibited all thiol isomerases tested	inhibit PDI	inhibited the ability of isolated a′ domain to cleave di-eosin-GSSG	293T-hACE2 and NIC-H460	inhibition of the ability of PDI to reduce insulin (PDI [4]): inhibited the ability of PDI to reduce insulin; inhibition of SARS-CoV-2 / infection (in words) (SARS-CoV-2): blocks SARS-CoV-2 virus infection in 293T cells expressing hACE2; Modeling shows gallic acid interaction with His41 or Glu166 (SARS-CoV-2 M^pro [9]): His41; Glu166; hydrogen bonding with M^pro in published molecular dynamic simulations (SARS-CoV-2 M^pro [9]): hydrogen bonding of TA with M^pro Cys145; antiplatelet activities (platelets): have antiplatelet activities
O=C1C[C@@H](c2ccccc2)Oc2cc(O)cc(O)c21 [Pinocembrin]	> 500	no activity	failed to inhibit PDI			
O=C(O)c1cc(O)c(O)c(O)c1 [Gallic Acid, 3,4,5-trihydroxybenzoic acid]		Neither pinocembrin, gallic acid nor glucose showed substantial activity against thiol isomerases	inactive compounds against PDI			IC50 (PDI [1]): > 500 µM; inhibition of PDI (in words) (PDI [1]; listed as gallate): failed to inhibit PDI
